The text below walks through data of article PMC3116082 (Journal of the American Chemical Society, 2011).

Common to all, as to format: biochemical
For test [1], the target named is T1, ThiSG (thiazole synthase) (Bacillus subtilis, UniProt O31618).
T1 sequence (O31618 1-256): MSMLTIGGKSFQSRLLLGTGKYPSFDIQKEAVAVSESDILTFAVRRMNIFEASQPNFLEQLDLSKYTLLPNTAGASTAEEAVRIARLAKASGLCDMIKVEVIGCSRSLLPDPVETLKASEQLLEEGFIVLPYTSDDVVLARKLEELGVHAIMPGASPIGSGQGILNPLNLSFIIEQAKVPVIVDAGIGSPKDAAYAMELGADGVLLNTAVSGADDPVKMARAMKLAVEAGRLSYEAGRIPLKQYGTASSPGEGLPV
T1 sequence (O31617 1-66 partner): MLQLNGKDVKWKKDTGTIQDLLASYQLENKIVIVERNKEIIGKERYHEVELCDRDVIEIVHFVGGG
Kind of test: thiazole reconstitution, strong anion exchange HPLC. The note with it: without TenI; ThiF, NifS, ThiO, cysteine, ATP, glycine, DXP.

Test [2] addresses thiamin phosphate synthase (ThiE) (Bacillus subtilis, UniProt P39594). Description: thiochrome assay, HPLC with fluorescence detection. The settings on record: co-substrate HMP-PP.
Test [3] deals with T2, ThiO (Bacillus subtilis, UniProt O31616).
T2 sequence (O31616 1-369): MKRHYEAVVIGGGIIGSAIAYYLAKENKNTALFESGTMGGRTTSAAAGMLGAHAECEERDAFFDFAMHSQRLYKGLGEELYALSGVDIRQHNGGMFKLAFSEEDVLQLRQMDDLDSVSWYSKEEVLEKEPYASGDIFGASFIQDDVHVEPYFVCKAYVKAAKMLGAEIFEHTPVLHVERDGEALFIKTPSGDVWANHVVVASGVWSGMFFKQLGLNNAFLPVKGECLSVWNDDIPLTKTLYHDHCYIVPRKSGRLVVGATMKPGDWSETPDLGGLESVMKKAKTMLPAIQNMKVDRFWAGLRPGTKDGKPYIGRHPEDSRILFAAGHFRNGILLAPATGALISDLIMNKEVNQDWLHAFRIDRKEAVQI
Description: H2O2 formation, HRP-coupled absorbance at […] nm. The note with it: 0.1-10 mM glycine, without TenI.

Sequence of thiamin phosphate synthase (ThiE) (P39594 whole entry): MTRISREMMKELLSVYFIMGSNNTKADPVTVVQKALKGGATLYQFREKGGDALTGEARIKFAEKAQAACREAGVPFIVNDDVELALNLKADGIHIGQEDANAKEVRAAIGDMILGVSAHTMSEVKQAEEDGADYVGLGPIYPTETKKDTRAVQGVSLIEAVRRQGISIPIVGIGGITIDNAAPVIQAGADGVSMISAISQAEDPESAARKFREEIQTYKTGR

On to `CC1=N[C@@H](C(=O)O)S/C1=C\COP(=O)(O)O` [compound 14, (R,Z)-2-(2-carboxy-4-methylthiazol-5(2H)-ylidene)ethyl phosphate], for which the “thiazole reconstitution, strong anion exchange HPLC” value in test [1] is given as “In the absence of TenI, cThz*-P was the only thiazole product formed”.
Turning to `Cc1ncsc1CCOP(=O)(O)O` [compound 15, 2-(4-methylthiazol-5-yl)ethyl phosphate], the “thiochrome assay, HPLC with fluorescence detection” value in test [2] was “cThz-P and Thz-P are significantly better substrates than cThz*-P”.
Same read-out and setting: with `Cc1nc(C(=O)O)sc1CCOP(=O)(O)O` [compound 16, 2-(2-carboxy-4-methylthiazol-5-yl)ethyl phosphate] the entry was “cThz-P and Thz-P are significantly better substrates than cThz*-P”.
With `NCC(=O)O` [compound 19, glycine], the “H2O2 formation, HRP-coupled absorbance at 500 nm” value in test [3] is given as “the rate of hydrogen peroxide production with increasing concentrations of glycine was unaffected by TenI”.
